Tests used:
[1] = Lipid/water partition coefficient in octanol/PBS (log D 7.4); format: physicochemical; details: pH 7.4
Experimental: The lipid/water partition coefficient of [^18F]3 was tested in octanol/PBS mixtures, following the published literature reports ([Li et al., 2019]) and presented as log D 7.4 values. Briefly, a small volume of [^18F]3 was added into an octanol/water mixture, and then, a series of diluted octanol/PBS mixtures was obtained, as described in the literature. The CPM in octanol and the PBS layer was obtained in a Wizard 2470 gamma counter (PerkinElmer) and was used to calculate the lipid/PBS partition coefficient. Several continuous and stable partition coefficient values were selected to calculate the log D 7.4 values.

[2] = In vitro stability in PBS saline, 20% EtOH solution and rat serum (radio-HPLC); format: physicochemical; details: 4 h at 37°C
Experimental: The in vitro stability of [^18F]3 was performed in PBS saline, 20% EtOH solution, and rat serum. In general, a solution of [^18F]3 (50 µL, approximately 20 KBq) was added to the PBS saline (2 mL), 20% EtOH solution (2 mL), and rat serum (2 mL), and these solutions were suspended in a water bath under 37°C for […]. Samples from PBS saline and 20% EtOH solution were loaded into the analytical radio-HPLC for the detection of RCP at designated time points (0, 1, 2, and 4 h), with the same condition described previously. The samples from the rat serum were added the same volume of acetonitrile to deposit the plasma protein, and the supernatant obtained by centrifugation (×12,000 r/min, 5 min) was analyzed at corresponding time points.

U87MG cells = assay: Cellular uptake of [^18F]3 in U87MG cells; format: cell-based; details: U87 cells
Experimental: Briefly, all cells were divided into the following two groups: A: blocking group and B: vehicle group. All cells were cultured, grouped, and plated (approximately 2*10^6 cells per well) before use. Cells were treated with [^18F]3 (74 KBq) and incubated at 37°C under a 5% CO2 atmosphere. […] Incubated at 37°C for 1 h, the medium from each well was removed, and the cells were washed twice with 1 mL of PBS. The medium and the PBS from each well were combined and counted in a Gamma counter (PerkinElmer Wizard 2470) for radioactivity counts. The cells were then handled with 1 mL of 1 M NaOH, and the lysates were also counted in the Wizard 2470 gamma counter. The uptake ratios for each group were then calculated with this equation: %Dose = […](medium counts + PBS counts + cell lysate counts).

[3] = system: A549-FAPI xenograft tumors; assay: Micro-PET/CT imaging, A549-FAPI xenograft tumors; format: in vivo, BALB/c nude mice
Experimental: (§1) BALB/c nude mice used in this study were obtained from the Animal Center of Sichuan University. Tumor-bearing mouse models were established by the subcutaneous injection of 100 µL of PBS suspension containing approximately 1*10^6 tumor cells to the body side of the subjects. The tumor volume was monitored every day, and the tumor-bearing mice were ready for imaging once the tumor volume reached 0.5 mm^3 (tumor volume can be calculated by this equation: Volume = 0.5 * long tail * short tail *short tail). Micro-PET/CT imaging studies were performed on the IRIS Micro-PET/CT system (Inviscan SAS, France). Tumor-bearing mice were injected with approximately 11.2–14.8 MBq of [^18F]3 (200 µL) via the tail vein under anaesthetization by isoflurane. Static PET images were obtained at designated time points and were reconstructed with a 3D-OSEM algorithm using a Monte Carlo-based accurate detector model. Then, 170 sec-CT acquisition was conducted with 50 kV, 1 mA X-ray output for attenuation correction and anatomical orientation. ROIs (regions of interest) were drawn on the lung, kidney, liver, and tumor by OsiriX software. SUV (standardized uptake value) of the ROIs was directly obtained from OsiriX for each subject according to this formula: SUV = Voxal value (Bq/mL) * Body weight (kg)/(Decay corrected Dose (Bq) * 1,000 (g/kg)).
(§2) BALB/c nude mice used in this study were obtained from the Animal Center of Sichuan university. Tumor-bearing mice model were established by the subcutaneous injection of 100 µL of PBS suspension containing approximately 1*10^6 tumor cells to the body side of the subjects. The tumor volume was monitored every day and the tumor-bearing mice were ready for imaging once the tumor volume reach 0.5 mm^3 (tumor volume can be calculated by this equation: Volume = 0.5 * long tail * short tail *short tail). Micro-PET/CT imaging studies were performed on the IRIS Micro-PET/CT system (Inviscan SAS, France). Tumor-bearing mice were injected with approximately 11.2-14.8 MBq of [^18F]3 (200 µL) via tail vein under anaesthetization by isoflurane. Static PET images were obtained at designated time points and were reconstructed with a 3D-OSEM algorithm using a Monte-Carlo based accurate detector model. A 170 sec-CT acquisition was conducted with 50 kV, 1 mA X-ray output for attenuation correction and anatomical orientation. ROIs (regions of interest) were drawn on lung, kidney, liver and tumor by Osirix software. SUV (standardized uptake value) of the ROIs was directly obtained from Osirix for each subject according to this formula: SUV = Voxal value (Bq/mL) * Body weight (kg)/(Decay corrected Dose (Bq) * 1000 (g/kg)).

[4] = Micro-PET/CT imaging, organ SUV in tumor-bearing nude mice; format: in vivo, BALB/c nude mice
Experimental: as §1, §2

[5] = A549-FAPI tumors, pre-injection of compound 3, 2 mg/kg

logD [1]: 1.11
intact [^18F]3 [2]: over 90%
SUV in the liver ([4]; 15 min p.i.): about 5.0
SUV in the kidney ([4]; 90 min p.i.): 3.0
SUV in the bladder ([4]; end of the scan): greater than 8.0
SUV in the liver ([4]; end of the scan (90 min)): 2.0
SUV in the kidney ([4]; initial): about 5.0
SUV in the brain ([4]; mouse, in vivo): less than 0.3
Compound: N#C[C@@H]1CC(F)(F)CN1C(=O)CNC(=O)c1ccnc2ccc([18F])cc12 [[^18F]3]
Cellular uptake ratio, blocking group (U87MG cells; 1 h, pre-treatment with compound 3, 10 µM): 1.19% ± 0.02%
Cellular uptake ratio (U87MG cells; 1 h incubation, vehicle group): 1.50% ± 0.13%
Tumor-to-muscle (T/M) ratio ([3]; A549-FAPI tumors, 90 min p.i.): 4.34
Tumor SUV, blocking group [3, 5]: lower than 0.2
Tumor-to-muscle (T/M) ratio, blocking group [3, 5]: less than 2.0
Tumor SUV ([3]; A549-FAPI xenografted tumors, within 90 min): greater than 0.4

Source: article PMC10086185, “Synthesis, radiolabeling, and evaluation of a (4-quinolinoyl)glycyl-2-cyanopyrrolidine analogue for fibroblast activation protein (FAP) PET imaging” (Frontiers in Bioengineering and Biotechnology, 2023)
